This is an account of results in patent publication US20040082662A1, “Polyisoprenylbenzophenone derivatives, processes for their preparation and use thereof” (Aventis Pharma Deutschland Gmbh, priority 2002, published 2004).

Series [1] is described as follows: Solubility (physicochemical properties). From the text: (§1) Stable in neutral and acidic medium.
In the next series the test system is Staphylococcus aureus. Briefly: Test of the antibacterial activity (agar plate, antibiotic test sheets, inhibition halo). It counts as cell-based. The note with it: 16 hours at 37° C. On the procedure: For the test of the antibacterial action, agar plates containing 2 ml of Staphylococcus aureus sowing in 200 ml of agar solution were firstly prepared. Makandechamone was applied in a 1 mg/ml solution to antibiotic test sheets (Schleicher and Schüll) having a diameter of 6 mm and placed on the agar plate. The inoculated Staphylococcus plates were incubated for 16 hours at 37° C. Inhibition halos having the following diameters (mm) were then observed: […]

Series [2] can be described thus: Stability (physicochemical properties). The note with it: neutral and acidic medium.
From the text: as §1

The test system of series [3] is certain bee-pathogenic bacteria. The note with it: cited from earlier work.
The subject of a further series is HIV. The note with it: cited from earlier work.

With `C=C1CC(C)(C)CCC1CC12CC(CC=C(C)C)C(C)(C)C(C(=O)c3ccccc3)(C1=O)C(O)=C(CC=C(C)C)C2=O` (stereo not drawn) [makandechamone], the “Solubility in medium polar and polar organic solvents” value in series [1] (medium polar and polar organic solvents) is given as “soluble”. For the same molecule, the Solubility in water entry in series [1] (water) is recorded as “not very soluble”. Further, the Inhibition halo size in the series on Staphylococcus aureus (10 μl of 1 mg/ml solution on 6 mm test sheet) was 7 mm; in the series on Staphylococcus aureus (20 μl of 1 mg/ml solution on 6 mm test sheet) it was 12 mm; in the series with Staphylococcus aureus (40 μl of 1 mg/ml solution on 6 mm test sheet), 14 mm. For the same molecule, the Stability entry in series [2] is reported as “Stable”.

Turning to chamone I, the “Activity against certain bee-pathogenic bacteria” value in series [3] is given as “active”.

For guttiferone F, the HIV-inhibitory action result with HIV was “HIV-inhibitory action”.

nemorosome II: the “Activity against certain bee-pathogenic bacteria” value in series [3] is given as “active”.
